Measured values reported in US8022249B2, “Compounds for the treatment of metabolic disorders” (Wellstat Therapeutics Corporation, priority 2005, dated 2011).

Legend:
ob/ob mice [1] = experiment: Serum ALT and AST in ob/ob mice (animal model for NASH); assay type: in vivo; conditions: for ALT ± SD / AST ± SD: male ob/ob mice, 100 mg/kg daily oral doses for two weeks, serum
Protocol: (§1) Male ob/ob mice were divided into four treatment groups comprising six mice each, and given daily oral doses of Vehicle (1% hydroxypropylmethylcellulose) or 100 mg/kg Compound CT, Compound CV, or Compound BI (a positive control) for two weeks. Blood samples were collected form the retro-orbital sinus and processed for serum chemistry measurements.
Obese ob/ob mice develop chronic inflammatory fatty liver disease and are considered to be an animal model for nonalcoholic steatohepatitis (NASH), a condition which can lead toward progressive cirrhosis and liver dysfunction. In NASH, fat accumulation increases the susceptibility of the liver to inflammatory injury. One characteristic sign of NASH in patients is, in the absence of viral infection or alcoholism, elevated levels in serum of enzymes that are released from damaged hepatocytes, e.g. alanine aminotransferase (ALT) and Aspartate-aminotransferase (AST). These enzymes are elevated in ob/ob mice as a consequence of fatty liver and secondary inflammation. In Table 3, ALT and AST in serum samples from mice treated with Compound CT, Compound CV, and Compound BI are shown, as are enzyme levels in serum from control ob/ob mice treated only with vehicle. Treatment with Compound CT, Compound CV, and Compound BI reduced serum ALT and AST versus vehicle-treated ob/ob mice.

ob/ob mice [2] = experiment: Serum glucose, triglycerides, free fatty acids and insulin in ob/ob mice; assay type: in vivo; conditions: male ob/ob mice, 100 mg/kg daily oral doses for two weeks
Protocol: Ob/ob mice have a defect in the gene for leptin, a protein involved in appetite regulation and energy metabolism, and are hyperphagic, obese, and insulin resistant. They develop hyperglycemia and fatty liver.
as §1

SMILES | ALT ± SD (ob/ob mice [1]) [U/L] | AST ± SD (ob/ob mice [1]) [U/L] | serum ALT and AST versus vehicle-treated ob/ob mice (in words) (ob/ob mice [1]) | Free Fatty Acids ± SD (ob/ob mice [2]) [µM] | Glucose ± SD (ob/ob mice [2]) [mg/dL] | Insulin ± SD (ob/ob mice [2]) [ng/mL] | Triglycerides ± SD (ob/ob mice [2]) [mg/dL]
Cc1cccc(C)c1COc1cccc(C(=O)CCC(=O)O)c1 [Compound BI, 4-(3-(2,6-Dimethylbenzyloxy)phenyl)-4-oxobutyric acid, reference compound] | 330 ± 40 | 217 ± 24 | reduced | 874 ± 74 | 180 ± 19 | 1.1 ± 0.2 | 58 ± 2
Cc1cccc(C)c1COc1cccc(CC(=O)NO)c1 [Compound CT, N-Hydroxy-2-[3-(2,6-dimethylbenzyloxy)phenyl]acetamide] | 230 ± 59 | 170 ± 23 | reduced | 894 ± 55 | 131 ± 21 | 3.1 ± 0.9 | 68 ± 6
Cc1cccc(C)c1COc1cccc(CC(=O)NCCO)c1 [Compound CV, N-(2-Hydroxyethyl)-2-[3-(2,6-dimethylbenzyloxy)phenyl]acetamide] | 484 ± 65 | 318 ± 48 | reduced | 1070 ± 60 | 164 ± 10 | 5.0 ± 0.7 | 73 ± 5
